Tests used:
[1] = target: T1, stromelysin-1 catalytic domain (SCD) (Homo sapiens, UniProt P08254); details: in Tris–HCl, not corrected for proton transfer; cited from earlier work
[2] = target: T1, stromelysin-1 catalytic domain (SCD); assay: Isothermal titration calorimetry of ligand binding

T1 sequence (P08254 100-272 limits assumed, species assumed): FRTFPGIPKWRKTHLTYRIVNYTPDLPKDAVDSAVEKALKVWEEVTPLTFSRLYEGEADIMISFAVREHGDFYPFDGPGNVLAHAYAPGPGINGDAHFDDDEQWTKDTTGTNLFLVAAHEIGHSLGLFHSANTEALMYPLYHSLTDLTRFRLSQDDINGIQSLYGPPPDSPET

Row | ΔG^0 ([2]; ITC, pH 7.5, 3% DMSO) | ΔHbind0 ([2]; ITC, pH 7.5, 3% DMSO, corrected for proton transfer) | ΔCP ([2]; from titrations at 15, 25 and 37 °C, by regression) | Structure (SMILES) | ΔHobs [1]
1 | – | – | – | Oc1ccccc1 [phenol] | -4.7 kcal/mol
2 | -2.4 ± 0.3 kcal/mol | -2.3 ± 0.2 kcal/mol | −67 ± 24 cal mol^−1 K^−1 | CC(=O)NO [Compound 8, acetohydroxamic acid] | –
